The source of these data is ChEMBL document CHEMBL5579834 (Eur J Med Chem, 2024).

One series relates to Marburgvirus. Briefly: Antiviral activity against HIV-based lentiviral pseudotyped Marburgvirus harboring mucin domain deleted GP infected in HEK293T cells assessed as inhibition of viral entry preincubated with virus for 1 hr followed by cell infection and measured after 48 hrs by luminescence assay. As to conditions: Orthomarburgvirus, HEK-293T. Format: functional, organism-based.

Series [1] deals with Ebolavirus. Briefly: Antiviral activity against HIV-based lentiviral pseudotyped Ebolavirus harboring mucin domain deleted GP infected in HEK293T cells assessed as inhibition of viral entry preincubated with virus for 1 hr followed by cell infection and measured after 48 hrs by luminescence assay. Format: functional, organism-based. As to conditions: Orthoebolavirus, HEK-293T.

Series [2] in a line: Selectivity index, ratio of CC50 for HEK293T cells to IC50 for antiviral activity against HIV-based lentiviral pseudotyped Marburgvirus harboring mucin domain deleted GP infected in HEK293T cells assessed as inhibition of viral entry. Format: toxicity, cell-based. As to conditions: human, read-out: Ratio CC50/IC50.
Series [3] in a line: Selectivity index, ratio of CC50 for HEK293T cells to IC50 for antiviral activity against HIV-based lentiviral pseudotyped Ebolavirus harboring mucin domain deleted GP infected in HEK293T cells assessed as inhibition of viral entry. The series is classed as toxicity, cell-based. As to conditions: human, read-out: Ratio CC50/IC50.
For series [4], the system named is Ebolavirus. In words: Antiviral activity against pseudotyped Ebolavirus harboring GP. Format: functional, organism-based. As to conditions: Orthoebolavirus.

As to `CC1CCN(CCCC(=O)O[C@H]2C(C)(C)[C@H]3CC[C@]2(C)C3)CC1`, the IC50 – broadly, the concentration that gives 50% inhibition – stood at 26.4 µM in the series on Marburgvirus and 2.8 µM in the series on Ebolavirus [1].
With `CC1(C)[C@H]2CC[C@](C)(C2)[C@H]1OC(=O)CCN1CCCCC1`, the figures for the selectivity ratio in series [2] and in series [3] were 11 and 20, respectively. For the same compound, the IC50 in the series with Marburgvirus is 31 µM; in the series with Ebolavirus [1], 17 µM.
Taken in the same sequence, the figures for `C[C@@H]1[C@H]2C[C@@H](C[C@H]1OC(=O)CCN1CCCCC1)C2(C)C` were 13, 23, 24 µM and 14.3 µM.
In the case of `C[C@@H]1[C@H]2C[C@@H](C[C@H]1OC(=O)CCCN1CCCCC1)C2(C)C`, the selectivity ratio stood at 13 in series [2] and 30 in series [3]. The figures for the IC50 in the series with Marburgvirus and in the series on Ebolavirus [1] were 9 µM and 4 µM, respectively.
Take `C[C@@H]1[C@H]2C[C@@H](C[C@H]1OC(=O)CCN1CCN(C)CC1)C2(C)C`: the IC50 in the series on Marburgvirus is 13.9 µM; with Ebolavirus [1], 4.9 µM.
Turning to `CC1(C)[C@H]2CC[C@](C)(C2)[C@H]1OC(=O)CCCN1CCOCC1`, the selectivity ratio in series [2] was found to be 3; in series [3], 40. Moreover, the IC50 amounted to 68 µM with Marburgvirus and 6.5 µM in the series with Ebolavirus [1].
As for `C[C@@H]1[C@H]2C[C@@H](C[C@H]1OC(=O)CCN1CCOCC1)C2(C)C`, the selectivity ratio was 1 in series [2] and 4 in series [3]. Also, the concentration for half-maximal inhibition (IC50) was determined as 156 µM in the series on Marburgvirus and 57 µM in the series with Ebolavirus [1].
On to `CC1CCN(CCC(=O)O[C@H]2C(C)(C)[C@H]3CC[C@]2(C)C3)CC1`, for which the selectivity ratio in series [2] amounted to 8; in series [3] it was 48. Further, the IC50 in the series with Marburgvirus was 22 µM; with Ebolavirus [1], 3.9 µM.
Regarding `CCN1CCN(CCCC(=O)O[C@H]2C(C)(C)[C@H]3CC[C@]2(C)C3)CC1`, the IC50 with Marburgvirus was 11.3 µM; in the series on Ebolavirus [1], 2.4 µM.
With `CN1CCN(CCCC(=O)O[C@H]2C(C)(C)[C@H]3CC[C@]2(C)C3)CC1`, the IC50 came to 20.7 µM with Marburgvirus and 3.1 µM in the series with Ebolavirus [1].
On to `CCN1CCN(CC(=O)O[C@H]2C(C)(C)[C@H]3CC[C@]2(C)C3)CC1`, for which the IC50 with Marburgvirus came out at 30.1 µM; with Ebolavirus [1], 9.1 µM.
Take `CC1CCN(CC(=O)O[C@H]2C(C)(C)[C@H]3CC[C@]2(C)C3)CC1`: the IC50 was 20.4 µM with Marburgvirus and 20.5 µM with Ebolavirus [1].
Regarding `CCN1CCN(CCC(=O)O[C@H]2C(C)(C)[C@H]3CC[C@]2(C)C3)CC1`, the figures for the selectivity ratio in series [2] and in series [3] were 14 and 44, respectively. Also, the results for the IC50 in the series with Marburgvirus and in the series on Ebolavirus [1] were 25 µM and 8.1 µM, respectively.
Consider `CC1(C)[C@H]2CC[C@](C)(C2)[C@H]1OC(=O)CN1CCCCC1`, for which the selectivity ratio in series [2] was 1; in series [3], 13. Further, the IC50 came out at 164 µM in the series on Marburgvirus and 17.1 µM in the series on Ebolavirus [1].
Take `CN1CCN(CCC(=O)O[C@H]2C(C)(C)[C@H]3CC[C@]2(C)C3)CC1`: the selectivity ratio in series [2] was 16; in series [3] it was 45. The results for the 50% inhibitory concentration (IC50) in the series on Marburgvirus and in the series with Ebolavirus [1] were 29 µM and 10.1 µM, respectively.
Taken in the same sequence, the figures for `CC1(C)[C@H]2CC[C@](C)(C2)[C@H]1OC(=O)CCN1CCN(c2ccccc2)CC1` were 3, 2, 7.3 µM and 10 µM.
For the compound `CN1CCN(S(=O)(=O)C[C@]23CC[C@H](CC2=O)C3(C)C)CC1`, the IC50 in the series on Ebolavirus [4] stood at 540 µM.
Take `CC1(C)[C@H]2CC[C@](C)(C2)[C@H]1OC(=O)CN1CCN(c2ccccc2)CC1`: the selectivity ratio in series [2] was determined as 1; in series [3], 17. Besides, the results for the 50% inhibitory concentration (IC50) in the series on Marburgvirus and in the series with Ebolavirus [1] were 56 µM and 5.8 µM, respectively.
For `CC1(C)[C@H]2CC[C@](C)(C2)[C@H]1OC(=O)CN1CCOCC1`, the selectivity ratio in series [2] worked out at 1; in series [3] it was 22. In addition, the results for the IC50 in the series on Marburgvirus and in the series on Ebolavirus [1] were 213 µM and 13 µM, respectively.
In the case of `C[C@@H]1[C@H]2C[C@@H](C[C@H]1OC(=O)CCN1CCN(c3ccccc3)CC1)C2(C)C`, the selectivity ratio was 4 in series [2] and 2 in series [3]. The IC50 in the series with Marburgvirus came to 27 µM; in the series with Ebolavirus [1], 54 µM.
Regarding `CC1(C)[C@H]2CC[C@](C)(C2)[C@H]1OC(=O)CCN1CCOCC1`, the IC50 with Marburgvirus came out at 64.4 µM; in the series on Ebolavirus [1], 57.9 µM.
Regarding `C[C@@H]1[C@H]2C[C@@H](C[C@H]1OC(=O)CCCN1CCN(C)CC1)C2(C)C`, the results for the selectivity ratio in series [2] and in series [3] were 6 and 58, respectively. Further, the IC50 with Marburgvirus is 24 µM; in the series with Ebolavirus [1] it was 2.8 µM.
Turning to `CN(C)CCOc1ccc(/C(=C(/CCCl)c2ccccc2)c2ccccc2)cc1` [TOREMIFENE], the IC50 with Marburgvirus was 0.7 µM; with Ebolavirus [1], 0.2 µM.
Taken in the same sequence, the figures for `CC1(C)[C@H]2CC[C@](C)(C2)[C@H]1OC(=O)CCCN1CCCCC1` were 13 µM and 1.9 µM.
In the series with Ebolavirus [4], `CCN1CCN(S(=O)(=O)C[C@]23CC[C@H](CC2=O)C3(C)C)CC1` gave an IC50 of 91 µM.
As to `CC1(C)[C@@H]2CC[C@@]1(CS(=O)(=O)N1CCOCC1)C(=O)C2`, the IC50 in the series on Ebolavirus [4] came to 0.9 µM.
Regarding `C[C@@H]1[C@H]2C[C@@H](C[C@H]1OC(=O)CN1CCN(c3ccccc3)CC1)C2(C)C`, the results for the selectivity ratio in series [2] and in series [3] were 2 and 6, respectively. Further, the figures for the IC50 with Marburgvirus and in the series on Ebolavirus [1] were 25 µM and 9 µM, respectively.
For the compound `C[C@@H]1[C@H]2C[C@@H](C[C@H]1OC(=O)CCCN1CCOCC1)C2(C)C`, the selectivity ratio in series [2] is 2; in series [3], 5. Further, the IC50 in the series with Marburgvirus stood at 39 µM; in the series with Ebolavirus [1], 21 µM.
As to `C[C@@H]1[C@H]2C[C@@H](C[C@H]1OC(=O)CN1CCOCC1)C2(C)C`, in series [3], the selectivity ratio is 1. In addition, the IC50 in the series on Ebolavirus [1] stood at 106 µM.
As for `C[C@@H]1[C@H]2C[C@@H](C[C@H]1OC(=O)CN1CCCCC1)C2(C)C`, the selectivity ratio in series [2] amounted to 3; in series [3], 7. The IC50 was 107 µM in the series on Marburgvirus and 42 µM in the series on Ebolavirus [1].
In turn, `CC1(C)[C@@H]2CC[C@@]1(CS(=O)(=O)N1CCCCC1)C(=O)C2` showed an IC50 with Ebolavirus [4] of 60 µM.
Regarding `CN1CCN(CC(=O)O[C@H]2C(C)(C)[C@H]3CC[C@]2(C)C3)CC1`, the IC50 was determined as 27.5 µM in the series on Marburgvirus and 20.4 µM in the series with Ebolavirus [1].
Consider `CC1(C)[C@H]2CC[C@](C)(C2)[C@H]1OC(=O)CCCN1CCN(c2ccccc2)CC1`, for which the selectivity ratio was determined as 10 in series [2] and 22 in series [3]. In addition, the IC50 with Marburgvirus stood at 6 µM; with Ebolavirus [1], 0.54 µM.
As to `C[C@@H]1[C@H]2C[C@@H](C[C@H]1OC(=O)CN1CCN(C)CC1)C2(C)C`, the concentration for half-maximal inhibition (IC50) was 47.6 µM in the series on Marburgvirus and 4.8 µM in the series with Ebolavirus [1].
Take `C[C@@H]1[C@H]2C[C@@H](C[C@H]1OC(=O)CCCN1CCN(c3ccccc3)CC1)C2(C)C`: the selectivity ratio in series [2] stood at 3; in series [3], 8. For the same compound, the IC50 in the series on Marburgvirus was 18 µM; in the series on Ebolavirus [1], 7.8 µM.
